This note sets out measurements from patent publication US20230276803A1, “A PESTICIDALLY ACTIVE MIXTURE COMPRISING THIETANYLOXY COMPOUND, OXIDES OR SALTS THEREOF” (PI INDUSTRIES LTD., priority 2020, published 2023).

Common to all, as to format: in vivo
Assay [1] has as its system Plutella xylostella. Kind of assay: Leaf dip method (cabbage leaves), Bacillus thuringiensis mixture against Plutella xylostella (Example F). The following applies: 0.1 ppm; 72 h. An excerpt: (§1) In which E represents the expected percentage of inhibition of the pests for the combination of two insecticides or one insecticide and one fungicide at defined doses (for example equal to x and y respectively), x is the percentage of inhibition observed for the pest/disease by the compound (1) at a given dose (equal to x), y is the percentage of inhibition observed for the pest/disease by the compound (2) or (3) at a defined dose (equal to y). When the percentage of inhibition observed for the combination is greater than E, there is a synergistic effect.
The leaf dip method was used, wherein the required quantity of the compounds were weighed and dissolved in a test solution prepared in tubes. The tubes were put on a vortex at 2000 rpm for 90 min for proper mixing and then, for the single compounds, diluted with a 0.01% Triton-X solution, for the combinations, diluted with a 0.01% Triton-X solution containing formulated Bt, to get the desired test concentration. Cabbage leaves were dipped in the solution for 10 seconds, shade dried for 20 min and then transferred to single cells of bioassay trays. […] Observations on dead, moribund and live larvae were recorded 72 h after the release. Percent mortality was calculated by combining dead and moribund larvae and comparing the results to the one of the untreated control. […]

Assay [2] has as its system Parastagonospora nodorum/Septoria nodorum/Stagnospora nodorum. Kind of assay: Preventive glasshouse test against Septoria nodorum in wheat (Example J). The following applies: 500 ppm, preventive spray.
Description: as §1
The single compounds or respective compound combinations were dissolved in 2% dimethyl sulfoxide/acetone and then mixed with water containing emulsifier to a calibrated spray volume of 50 mL. The test solutions were poured into spray bottles for further applications.
[…] One day after treatment, the plants were inoculated with a spore suspension containing 2.8×10^6 Stagnospora nodorum inoculum.
The inoculated plants were then kept in a greenhouse chamber at 22-25° C. temperature and 90-100% relative humidity for disease expression.
A visual assessment of the performance of the single compounds or compound combinations was carried out by rating the disease severity (0-100% scale) on treated plants 3, 7, 10 and 15 days after application. Efficacy (% control) of the single compounds and mixtures was calculated by comparing the disease rating in the treatment with the one of the untreated control. The compounds were also assessed for their plant compatibility by recording symptoms like necrosis, chlorosis and stunting. The results have been described for the compound of formula (I-1) in Table J.

In assay [3] the test system is Erysiphe cichoracearum. Kind of assay: Preventive glasshouse test against Erysiphe cichoracearum in cucumber (Example K). The following applies: 500 ppm, preventive spray.
Description: as §1
The single compounds or the respective compound combinations were dissolved in 2% dimethyl sulfoxide/acetone and then mixed with water containing emulsifier to a calibrated spray volume of 50 mL. The test solutions were poured into spray bottles for further applications. […]
A visual assessment of the performance of the compounds and the respective compound combinations was carried out by rating the disease severity (0-100% scale) on treated plants 3, 7, 10 and 15 days after application. Efficacy (% control) of the single compounds or compound combinations was calculated by comparing the disease rating in the treatment with the one of the untreated control. The compounds were also assessed for their plant compatibility by recording symptoms like necrosis, chlorosis and stunting. […]

Assay [4] relates to Plutella xylostella. Kind of assay: Leaf dip method (cabbage) against Plutella xylostella (Example C). The following applies: Plutella xylostella, foliar, 72 h, read-out: Observed Efficacy (%).
Description: as §1
The leaf dip method was used, wherein the required quantity of the compound or respective compound combinations were weighed and dissolved in a test solution prepared in tubes. The tubes were put on a vortex at 2000 rpm for 90 min for proper mixing and then diluted with a 0.01% Triton-X solution to the desired test concentration. Cabbage leaves were dipped into the solution for 10 seconds, shade dried for 20 min and then transferred to single cells of bioassay trays. A single second instar larva was released into each cell and the tray was covered with a lid. The bio-assay trays were kept under laboratory conditions at a temperature of 25° C. and relative humidity of 70%. Observations on dead, moribund and live larvae were recorded 72 h after the release. Percent mortality was calculated by combining dead and moribund larvae and comparing the result with the one of the untreated control. The results are shown for compound of formula (I-1) in Table C.

For `Cc1cc(Cl)cc(C(=O)NC(C)(C)C)c1NC(=O)c1cc(OC2CS(=O)(=O)C2)nn1-c1ncccc1Cl` [Compound (I-1), N-(2-(tert-butylcarbamoyl)-4-chloro-6-methylphenyl)-1-(3-chloropyridin-2-yl)-3-((1,1-dioxidothietan-3-yl)oxy)-1H-pyrazole-5-carboxamide], the results for the “Observed Efficacy (%)” value in assay [1], in assay [2] and in assay [3] were 0%, 37% and 28%, respectively. For the same compound, the pest or weed control at 0.0025 ppm in assay [4] (0.0025 ppm) is 0%. For the same compound, the pest or weed control at 0.004 ppm in assay [4] (0.004 ppm) worked out at 0%. For the same compound, the pest or weed control at 0.005 ppm in assay [4] (0.005 ppm) was 0%. In addition, the pest or weed control at 0.02 ppm in assay [4] (0.02 ppm) came to 12.5%. The pest or weed control at 0.03 ppm in assay [4] (0.03 ppm) turned out to be 12.5%. Besides, in assay [4] (0.05 ppm), the pest or weed control at 0.05 ppm is 12.5%. For the same compound, in assay [4] (0.1 ppm), the pest or weed control at 0.1 ppm turned out to be 12.5%. For the same compound, in assay [4] (0.5 ppm), the pest or weed control at 0.5 ppm turned out to be 25%.
